Legend:
[1] = molecular target: peptide fragment of TAR DNA-binding protein 43 (TDP-43) (Homo sapiens, UniProt Q13148); test: Ion-mobility mass spectrometry (IM-MS) of TDP-43 peptide oligomerization; assay type: biochemical; conditions: approximately 4 hours after addition of compound to aggregated peptide sample; for 6mer/hexamer peak of TDP-43 peptide (IM-MS, FIG. 2): versus control
Text: One of the assays used to determine the effectiveness of the compounds is Ion Mobility Mass Spectroscopy, or IM-MS. In this assay, a protein solution was fed into the IM-MS tube. At the entrance to the tube, an electric field ionized the proteins, propelling them into the body of the tube, where a constant electric field propelled them forward. Upon reaching the end of the tube, the ionized proteins were counted by a particle detector, which can also measure the mass/charge ratio and flight time of each particle.
Methods: IM-MS was utilized to monitor the oligomerization of a peptide fragment of TAR DNA-binding protein 43 (TDP-43) in the presence of compounds 1 and 2 using methods as described in Laos et al ACS Chem. Neuro. 2019, 10 (9), 4112-4123; and Biochemistry 2019, 59 (4), 499-508. The accumulation of TDP-43 aggregates in the central nervous system is a common feature of many neurodegenerative diseases, such as amyotrophic lateral sclerosis, frontotemporal dementia, Alzheimer's disease, and limbic predominant age-related TDP-43 encephalopathy. The ability of IM-MS to separate TDP-43 aggregate species of a specific [m]z+ (m=mass, z=charge) that contains different [n]z+ (n=number of TDP-43 peptide molecules aggregated together) by measuring the arrival time distributions (ATDs) yields oligomeric distribution spectrographs.
In FIG. 2, the number denoted at the top of each peak is the peptide aggregate size (e.g., 6=6 peptides aggregated together). The spectrograph designated as Control is the peptide form of TDP-43 without any protein aggregation disrupting compound added. Measurements were taken approximately 4 hours after addition of compound to aggregated peptide sample. […] The 6mer is the toxic oligomer that propagates disease and neuronal degeneration. FIG. 2 also discloses that the addition of compound 1 or compound 2 decreased the number of higher-order TDP-43 oligomers and increased the number of TDP-43 monomers and dimers.
We conducted two types of experiments. The first was a co-incubation experiment, where we added the compounds to a fresh solution of monomeric protein, and allowed the protein to aggregate (or, ideally, not aggregate) in the presence of the compound. The second experiment was a recovery experiment, where we added our compounds to a solution of pre-aggregated protein. Co-incubation experiments allowed us to determine if the compounds can prevent initial aggregation, while recovery experiments allowed us to determine if the compounds can break up existing aggregates.

Aβ 1-42 = molecular target: T1, Aβ 1-42 (Homo sapiens, UniProt P05067); test: Aβ42 thioflavin T assay; assay type: biochemical; conditions: 50 μM compound, 5 μM Aβ 1-42, ThT RFU at 15 hours; 100% = Aβ + DMSO; read-out: Aβ42 % aggregation at 50 μM
T1 construct: The monomeric form of Aβ 1-42 (rPeptide, A1170-025) film; purchased rPeptide A1170-025
Procedure: The effect of compounds on fibril formation by Aβ 1-42 was screened using a thioflavin T (ThT) fluorescence assay in a 96-well plate format. The monomeric form of Aβ 1-42 (rPeptide, A1170-025) film was diluted with 10 mM NaOH to form a 1 mg/ml stock solution. This stock solution was then further diluted with cell culture grade water (Cytiva, SH30529.01) and 10×PBS (VWR, 97063-660) to a working concentration of 100 μM in 1×PBS on ice. Compounds were initially dissolved in 100% DMSO (MilliporeSigma, D2650) at room temperature to make a 10 mM stock and stored at −20° C. prior to the experiment. On the day of the experiment, the stock solution was diluted with 1×PBS to a concentration of 500 μM, containing 5% DMSO. The reaction mixture, containing 10 μM ThT […], 5 μM Aβ 1-42, and 1×PBS was prepared in 15 ml Falcon centrifuge tubes (Corning, 352070) and kept on ice during preparation. The reaction mixture was then dispensed into multiple wells of a 96-well half-area, low-binding polyethylene non-treated plate (Corning, 3880) with a clear bottom, at 90 μL per well. To each well, 10 μL of 500 μM compound stock was added, with three replicates per compound. To account for the presence of DMSO, 5% DMSO in 1×PBS was used as the vehicle control. The positive control consisted of 10 μM ThT, 5 μM Aβ 1-42, and 0.5% DMSO in 1×PBS, while the negative control consisted of 10 μM ThT and 0.5% DMSO in 1×PBS. The plates were sealed with polyester sealing tape (VWR, 89134-430) to prevent evaporation and then placed in a plate reader (Molecular Devices SpectraMax ID5) at 37° C. without agitation. ThT fluorescence was measured through the bottom of the plate using 440- and 480-nm excitation and emission filters for 15 hours at 0.5-hour intervals. Each well was scanned at 5 points with a 1.25 mm distance between points. The relative fluorescence unit (RFU) at 15 hours was used to rank the percent of aggregation for all tested compounds and controls.

toxic tau oligomers = test: Neuronal cell toxicity assay (MTT), tau oligomers; assay type: cell-based; conditions: primary rat neurons, 100% = cells without tau oligomers, 0% = tau oligomers and DMSO
Procedure: Primary rat cortical and striatal neurons were prepared from foetuses' brain as previously described (Garcia et al., Diabetes, Obesity & Metabolism 2010, 12, 403-413; Roby et al., Food chemistry 2015, 171, 397-404; Colin et al., Biochimie 2016, 130, 178-187). Briefly, the embryos were extracted, brains were collected and dissected using a binocular magnifier. Embryonic cortical/striatal tissues were dissociated by a combination of enzymatic digestion and mechanical dissociation. The relative number of live cells in cell suspension was evaluated for each cortical and striatal neurons using Thoma cell counting chamber and Axio Scope A1 microscope (Carl Zeiss, Oberkochen, Germany). Dissociated neurons were plated (80,000 cells/well) in 48-well plates pre-coated with 15 μg/mL Poly-ornithine (Sigma), 1 μg/ml Laminin (Sigma). Cells were cultured in Neurobasal medium (Invitrogen, Paris, France) serum free of and supplemented with 2% (v/v) of B-27 Supplement (Invitrogen). […]
To induce neuronal toxicity, neurotoxin (oligomeric forms of Aβ, Tau and alpha-synuclein at 0.1-5 μM) were used. […] Cell viability was evaluated by a 3-(4,5-dimethylthiazol-2-yl)-2,5-diphenyl-2H-tetrazolium bromide (MTT) assay at 24-72 h post neurotoxin challenge. […] After complete solubilization of formazan, absorbance was recorded at 500 nm with a spectrophotometer (SpectraMax® i3x, Molecular Devices, San José, USA).

T1 sequence (P05067 672-713 limits assumed): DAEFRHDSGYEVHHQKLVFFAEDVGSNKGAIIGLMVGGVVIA

Compound	number of TDP-43 monomers and dimers (IM-MS, FIG. 2) [1]	number of higher-order TDP-43 oligomers (IM-MS, FIG. 2) [1]	6mer/hexamer peak of TDP-43 peptide (IM-MS, FIG. 2) [1]	activity at 50 µM (Aβ 1-42) [%]	% rescue at 10 μM compound from toxic tau oligomers (toxic tau oligomers) [%]
CC(=O)Nc1ccc2c(c1)CCN(CCc1cccc(Cl)c1)C2 [Compound 1]	increased	decreased	depleted	60.9	
CC(=O)Nc1ccc2c(c1)CCN(CCc1ccc(F)c(Cl)c1)C2 [Compound 2]	increased	decreased	depleted	73.5	33.7

Reference: patent publication US20260242340A1, “COMPOUNDS AND METHODS FOR TREATING PROTEIN AGGREGATION DISEASES” (ACELOT, INC., priority 2023, published 2026)
